Assay results: ChEMBL document CHEMBL1201862, “PubChem BioAssay data set” (2004)
Where a name gives a salt, the structure may show the parent alone.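 Method: 48-hour compound exposure of cells in 96-well plates, five concentrations, linear interpolation of endpoints. GI50 is the concentration that inhibits growth by half.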 The source made the active and inactive calls. Rule as the data show it: active = GI50 up to about 1.1 µM and inactive = higher.

Legend:
Test in all cases: growth of human tumour cells (NCI), 48 h
MOLT-4 = tested on: MOLT-4
MCF7 = tested on: MCF7
CCRF-CEM = tested on: CCRF-CEM
UACC-257 = tested on: UACC-257
M14 = tested on: M14
NCI/ADR-RES = tested on: NCI/ADR-RES
SK-MEL-2 = tested on: SK-MEL-2
SW-620 = tested on: SW-620
SK-MEL-28 = tested on: SK-MEL-28
RXF 393 = tested on: RXF 393
U-251 = tested on: U-251
SF-268 = tested on: SF-268
EKVX = tested on: EKVX
COLO 205 = tested on: COLO 205
HCC 2998 = tested on: HCC 2998
Malme-3M = tested on: Malme-3M
SNB-75 = tested on: SNB-75
OVCAR-8 = tested on: OVCAR-8
RPMI-8226 = tested on: RPMI-8226
A498 = tested on: A498

SMILES	GI50 (MOLT-4)	GI50 (MCF7)	GI50 (CCRF-CEM)	GI50 (UACC-257)	GI50 (M14)	GI50 (NCI/ADR-RES)	GI50 (SK-MEL-2)	GI50 (SW-620)	GI50 (SK-MEL-28)	GI50 (RXF 393)	GI50 (U-251)	GI50 (SF-268)	GI50 (EKVX)	GI50 (COLO 205)	GI50 (HCC 2998)	GI50 (Malme-3M)	GI50 (SNB-75)	GI50 (OVCAR-8)	GI50 (RPMI-8226)	GI50 (A498)
Cc1cc(C(=O)CBr)c(CN2C(=O)c3ccccc3C2=O)c(=O)n1C	1.93 µM (inactive)	17.9 µM (inactive)	2.92 µM (inactive)	17 µM (inactive)	43.1 µM (inactive)	47.8 µM (inactive)	27 µM (inactive)	3.78 µM (inactive)	20.4 µM (inactive)	11 µM (inactive)	12.7 µM (inactive)	24.4 µM (inactive)	2.21 µM (inactive)	8.43 µM (inactive)	38.1 µM (inactive)	19.4 µM (inactive)	22.8 µM (inactive)	18.1 µM (inactive)		
CN(Cc1cnc2nc(N)nc(N)c2n1)c1ccc(C(=O)NC(CO)CCCO)cc1 (stereo not given)	> 100 µM (inactive)	> 100 µM (inactive)	> 100 µM (inactive)	> 100 µM (inactive)	> 100 µM (inactive)	> 100 µM (inactive)	> 100 µM (inactive)	> 100 µM (inactive)	> 100 µM (inactive)	> 100 µM (inactive)	> 100 µM (inactive)	> 100 µM (inactive)	> 100 µM (inactive)	> 100 µM (inactive)		> 100 µM (inactive)	> 100 µM (inactive)	> 100 µM (inactive)	> 100 µM (inactive)	> 100 µM (inactive)
NNC1=N/C(=C\c2ccco2)C(=O)N1	64.7 µM (inactive)	> 100 µM (inactive)	> 10 µM (inactive)	> 100 µM (inactive)	> 100 µM (inactive)	> 100 µM (inactive)	> 100 µM (inactive)	> 100 µM (inactive)	> 100 µM (inactive)		91.8 µM (inactive)		> 100 µM (inactive)	> 100 µM (inactive)	44.3 µM (inactive)	> 100 µM (inactive)	> 100 µM (inactive)	> 100 µM (inactive)	57.3 µM (inactive)	> 100 µM (inactive)
COC(=O)C(Cc1ccccc1)OC(=O)C(N)CC(=O)O (stereo not given)	> 100 µM (inactive)	> 100 µM (inactive)		32.4 µM (inactive)	> 100 µM (inactive)	> 100 µM (inactive)	> 100 µM (inactive)	> 100 µM (inactive)	> 100 µM (inactive)	> 100 µM (inactive)		> 100 µM (inactive)	> 100 µM (inactive)	> 100 µM (inactive)	> 100 µM (inactive)	> 100 µM (inactive)	< 0.01 µM (active)	> 100 µM (inactive)	> 100 µM (inactive)	
CN1[C@@H]2CC[C@H]1C[C@@H](OC(c1ccccc1)c1ccccc1)C2 [BENZTROPINE MESYLATE]	21 µM (inactive)	13.9 µM (inactive)	14 µM (inactive)	13.7 µM (inactive)	14.7 µM (inactive)	16.2 µM (inactive)	17.1 µM (inactive)	14.5 µM (inactive)	14.7 µM (inactive)	15.5 µM (inactive)	15.5 µM (inactive)	18.5 µM (inactive)	31.6 µM (inactive)	11.3 µM (inactive)		14.9 µM (inactive)	17.3 µM (inactive)	16.4 µM (inactive)	14.7 µM (inactive)	14 µM (inactive)
O=C(O)C1C2CC3C(OC(=O)C31)C2Br (stereo not given)	> 39.5 µM (inactive)	> 100 µM (inactive)	> 100 µM (inactive)	> 100 µM (inactive)	> 100 µM (inactive)	> 100 µM (inactive)	> 100 µM (inactive)	> 100 µM (inactive)	> 100 µM (inactive)	> 100 µM (inactive)	> 100 µM (inactive)	> 100 µM (inactive)	> 100 µM (inactive)	> 100 µM (inactive)		> 100 µM (inactive)	> 100 µM (inactive)	> 100 µM (inactive)	> 100 µM (inactive)	> 100 µM (inactive)
CC(=O)Oc1ccc2c3c1O[C@H]1[C@H](O)CC[C@@]4(O)[C@@H](C2)N(C)CC[C@]314	> 100 µM (inactive)	> 100 µM (inactive)		> 100 µM (inactive)	> 100 µM (inactive)	> 100 µM (inactive)	> 100 µM (inactive)	> 100 µM (inactive)	> 100 µM (inactive)		> 100 µM (inactive)	> 100 µM (inactive)	> 100 µM (inactive)	> 100 µM (inactive)		> 100 µM (inactive)		> 100 µM (inactive)	> 100 µM (inactive)	> 100 µM (inactive)
c1ccc2c(-c3ccnc(-c4c[nH]c5ccccc45)n3)c[nH]c2c1	1.87 µM (inactive)	2.74 µM (inactive)	1.51 µM (inactive)	4.34 µM (inactive)	1.99 µM (inactive)	16.4 µM (inactive)	4.16 µM (inactive)	4.86 µM (inactive)	6.9 µM (inactive)		3.86 µM (inactive)	10.6 µM (inactive)	6.4 µM (inactive)	5.45 µM (inactive)	2.79 µM (inactive)			5.93 µM (inactive)	1.91 µM (inactive)	2.23 µM (inactive)
C=CCOCn1cnc2c(=O)[nH]c(N)nc21	> 100 µM (inactive)	> 100 µM (inactive)	> 100 µM (inactive)		> 100 µM (inactive)	> 100 µM (inactive)	> 100 µM (inactive)	> 100 µM (inactive)	> 100 µM (inactive)		> 100 µM (inactive)	> 100 µM (inactive)	> 100 µM (inactive)	> 100 µM (inactive)	> 100 µM (inactive)	> 100 µM (inactive)	> 100 µM (inactive)	> 100 µM (inactive)	> 100 µM (inactive)	> 100 µM (inactive)
Cc1c(C)c(S(=O)(=O)N(CCCCCON)OCCCN)c(C)c2c1OC(C)(C)CC2	4.94 µM (inactive)	8.18 µM (inactive)		15.9 µM (inactive)	7 µM (inactive)	15.9 µM (inactive)	15.4 µM (inactive)	15 µM (inactive)	16.5 µM (inactive)	12.3 µM (inactive)	12.8 µM (inactive)	16.8 µM (inactive)	12.3 µM (inactive)	3.48 µM (inactive)		14.3 µM (inactive)	14.3 µM (inactive)	11 µM (inactive)	9.29 µM (inactive)	14.6 µM (inactive)
Cn1c2c(c3ccccc31)CC1c3c(c4ccccc4n3C)CC21 (stereo not given)	> 100 µM (inactive)	> 100 µM (inactive)	> 100 µM (inactive)	> 100 µM (inactive)	> 100 µM (inactive)	> 100 µM (inactive)		> 100 µM (inactive)	> 100 µM (inactive)	> 100 µM (inactive)	> 100 µM (inactive)	> 100 µM (inactive)	> 100 µM (inactive)	> 100 µM (inactive)	> 100 µM (inactive)	> 100 µM (inactive)	> 100 µM (inactive)	> 100 µM (inactive)	> 100 µM (inactive)	
CCc1nnc(S)n1/N=C\c1ccc(-c2ccccc2[N+](=O)[O-])o1	19.4 µM (inactive)	19.9 µM (inactive)	42.1 µM (inactive)	76.4 µM (inactive)	39.7 µM (inactive)	26.3 µM (inactive)	29.4 µM (inactive)	41.7 µM (inactive)		63.5 µM (inactive)	38.5 µM (inactive)	36.7 µM (inactive)	21.1 µM (inactive)	29.9 µM (inactive)		85.5 µM (inactive)	32.1 µM (inactive)	33.1 µM (inactive)	13.2 µM (inactive)	49.4 µM (inactive)
OCC1OC(n2cnc3c(/C=C(/O)c4ccccc4)ncnc32)C(O)C1O (stereo not given)	1.71 µM (inactive)	3.8 µM (inactive)	0.61 µM (active)	3.89 µM (inactive)	0.813 µM (active)	2.11 µM (inactive)	1.01 µM (active)	0.875 µM (active)	41.8 µM (inactive)	4.12 µM (inactive)	10.9 µM (inactive)	5.78 µM (inactive)	19.1 µM (inactive)	0.944 µM (active)		5.33 µM (inactive)	0.7 µM (active)	2.17 µM (inactive)	1.38 µM (inactive)	2.16 µM (inactive)
CSCCCNC(=O)c1csc(-c2csc(CCN)n2)n1	> 100 µM (inactive)	74.1 µM (inactive)	75.2 µM (inactive)	> 100 µM (inactive)	> 100 µM (inactive)	> 100 µM (inactive)		> 100 µM (inactive)	> 100 µM (inactive)	> 100 µM (inactive)	> 100 µM (inactive)	> 100 µM (inactive)	> 100 µM (inactive)	> 100 µM (inactive)	> 100 µM (inactive)	43.8 µM (inactive)		> 100 µM (inactive)	44.7 µM (inactive)	
CC(=O)O[C@@]12[C@@H]3O[C@@]4(O)C[C@]5(C)[C@H]6C[C@@](C(C)C)(O[C@H]5c5ccoc5)O[C@H]1[C@]6(C4)O[C@]2(O)C(C)=CC3(C)C	> 100 µM (inactive)	> 100 µM (inactive)	> 100 µM (inactive)	> 100 µM (inactive)	> 100 µM (inactive)	> 100 µM (inactive)	> 100 µM (inactive)	> 100 µM (inactive)	> 100 µM (inactive)	> 100 µM (inactive)	> 100 µM (inactive)	> 100 µM (inactive)	> 100 µM (inactive)	> 100 µM (inactive)	> 100 µM (inactive)	> 100 µM (inactive)	75.9 µM (inactive)	> 100 µM (inactive)	> 100 µM (inactive)	
